Test results from patent US20240423988A1, “Improvement of Tumor Immunogenicity by Means of Splicing-Controlling Compound” (Kyoto University, priority 2021, published 2024).

Columns and labels:
tumor cells = settings: cited from earlier work
CD8^+ T cells = test: IFN-γ ELISpot assay; format: cell-based; settings: splenocytes of vaccinated mice co-cultured with peptide-pulsed BMDCs
Protocol: The 22 splice-neoantigen candidates and a melanoma antigen peptide, tyrosinase-related protein 2 (TRP2) 180-188, serving as a positive control, were synthesized. […] mice were vaccinated twice with the synthesized peptides in the presence of Poly(I:C) as an adjuvant. Then, splenocytes were prepared from the vaccinated mice and co-cultured with peptide-pulsed bone marrow-derived dendritic cells (BMDCs) for 24 hours, and the activation of CD8^+ T cells was evaluated using an IFN-γ ELISpot assay (FIG. 5-1A).
Eight-week-old female C57BL/6N mice were subcutaneously injected with 100 μg of synthesized peptides (Genscript Japan) and 50 μg of poly(I:C) formulated in PBS (5 peptides/mouse) on days 0 and 7. H2-K^b TRP-2180-188 peptide (MBL International, Woburn, MA) was used as a positive control. Mice were sacrificed 12 days after the initial injection, and splenocytes were isolated. As stimulators, bone marrow-derived dendritic cells (BMDCs) were generated as described previously, with some modifications. Briefly, bone marrow cells were isolated from femurs of the 8-week-old female C57BL/6N mice through centrifugation on day 2. Cells were passed through a 70-um cell strainer and seeded in 10-cm petri dishes with RPMI1640 containing 10% FBS, 100 U/mL P/S, 2 mM L-glutamine, 50 μM 2-ME, and 20 ng/ml Gm-csf (Peprotech, Rocky Hill, NJ). Culture was maintained by replacing half of the medium every 2 or 3 days. On day 12, most of the nonadherent cells had acquired typical dendritic morphology, and these cells were pulsed with peptides (2 μg/ml) for 2 hours at 37° C. ELISpot assay was performed using a Mouse IFN-γ ELISpot BASIC kit (Mabtech AB, Nacka Strand, Sweden) as per the manufacturer's instructions. Freshly isolated splenocytes (5× 10^5 cells) were co-incubated with peptide-pulsed BMDCs (4×10^4 cells) overnight at 37° C. under 5% CO2 conditions in an ELISpot PVDF white plate coated with anti-IFN-γ antibody (clone AN18). Then, IFN-γ secretion was detected using a […] (clone R^4-6A2) and a BCIP/NBT-plus substrate. After leaving the plate to dry, the spot number was counted using a dissection microscope. Spot images were acquired using an ImmunoSpot S6 Ultimate Analyzer (Cellular Technology Limited, Cleveland, OH).

MC38 cells [1] = test: Co-culture assay for tumor-killing activity, peptide-pulsed target cells; format: cell-based, murine; settings: for tumor-killing responses, individual epitopes: MC38 pulsed with individual peptide, hexavalent peptide-reactive effector cells
Source text: [FIG. 6-1] FIG. 6. Hexavalent vaccination of inducible splice-neoepitopes promotes Compound 1-induced cancer immune responses. A: A schema for the cancer-killing assay. B and C: Representative flow cytometric images showing tumor-killing activity mediated by antigen-elicited effector cells (B) and their quantitative data of annexin V^+/CFSE^+ frequency (C) are indicated (n=3/group). Hexavalent (Kifc1^−, Nf1^−, Acbd4^−, Rfx7^−, Qpct1^−, and Nup153-derived) peptides or an irrelevant Trp2180-188 peptide was used to elicit antigen-reactive effector cells. CFSE-labeled MC38 cells were stimulated with either 0.1% DMSO or hexavalent peptides for 2 hours and then co-cultured with effector cells for 24 hours. Annexin V was used for monitoring early and late apoptotic cell frequencies. *** represents p<0.001. D: For the nontargeting control (NC) or B2M KO clone (n=3/group), annexin V^+/CFSE^+ frequencies in the same experimental condition as (C) are shown. ** represents p<0.01.
[FIG. 7] A: In vitro tumor-killing activity mediated by individual splice-neoantigens. Quantitative data of annexin V^+/CFSE^+ frequencies are shown (n=3/group). CFSE-labeled MC38 cells, with or without IFN-pretreatment, were further stimulated with either 0.1% DMSO, hexavalent peptides, or individual peptides for 2 hours, and then co-cultured with hexavalent peptide-reactive effector cells for 24 hours. Data are shown as the mean±SEM. Experiments were performed at least twice. B: Tumor suppressive effect by hexavalent or individual splice-neoantigen vaccination. Tumor volumes of mice on day 23 are shown. Mice were subcutaneously vaccinated with 100 μg of peptide and 50 μg of Poly(I:C) on days 11 and 18. In groups indicated by (−), 5% DMSO was injected instead of peptide. Compound 1 ([…]) or vehicle control (0.1% DMSO) was intratumorally given once daily. Data are shown as the mean±SEM (n=7/group). Experiments were performed once.
Splenocytes were prepared from mice vaccinated with either hexavalent splice-neoantigens or an irrelevant Tpr2180-188 antigen, and then further stimulated with BMDCs pulsed with the same antigen(s) in the presence of IL-2. Tumor-killing activity was quantified based on the frequency of Annexin V^+/CFSE^+24 hours after co-culture with antigen(s)-elicited effector cells and CFSE-prelabeled target cells. […] As a result, this tumor-killing activity was absent for the B2m KO MC38 cells (FIG. 6-1D).
Splenocytes were prepared from peptide(s)-vaccinated mice inoculated with Poly(I:C) on day 14, as described in the section of “ELISpot assay”. To further elicit antigen-specific CD8^+ T cells, freshly isolated splenocytes were co-cultured with peptide(s)-pulsed bone marrow-derived dendritic cells (BMDCs) in the presence of 10 ng/ml IL-2 (Peprotech) for another 7 days. Culture was maintained by replacing half of the medium every 2 or 3 days. Splenocytes stimulated with BMDCs, as effector cells, were then co-cultured with target cells at an effector target ratio of 5:1 for 24 hours to examine their lytic activity. For the preparation of target cells, in the previous day of co-culture with effector cells, cells were labeled with […] carboxyfluorescein diacetate succinimidyl ester (CFSE; Dojindo) for 10 minutes, and incubated with FBS for additional 10 minutes to stop the labeling reaction. After washing with medium twice, cells were cultured overnight in the presence of 10 ng/ml IFN-γ. The next day, target cells were pulsed with 10 ng/ml peptide(s) for 2 hours prior to co-culture or treated with Compound 1 in the presence of effector cells. After 24 hours of co-culture, cells were stained with annexin V (Biolegend) in an annexin V binding buffer for 15 minutes and subjected to flow cytometry analysis. Effector cell-mediated killing activity was calculated from the frequencies of annexin V^+/CFSEt.

[2] = test system: splenocytes (CD8^+ and CD4^+ T cells); test: Ex vivo splenocyte culture assay (antigen-independent T cell activation); format: cell-based, mice; settings: 24 hours, flow cytometry
[3] = test system: various murine cancer cell lines (LLC, Pan02, WEHI3, CT26, EG7, B16, MC38); test: RNA-seq analysis of splice-neoantigen producing events in various murine cancer cell lines; format: cell-based
Protocol: [FIG. 5-2] Continuation of FIG. 5. D and E: RT-PCR analysis for splice-neoantigen coding forms (splice-NA forms) in MC38 cells treated with 10 µM Compound 1 or vehicle control (0.1% DMSO) for 6 hours. Actb served as a loading control. * represents p<0.05, ** represents p<0.01, and *** represents p<0.001. F: Splice-neoantigen producing rates calculated from RNA-seq data (n=3 biological replicates) are indicated as the APSI (Compound 1-DMSO). All data are shown as the mean±SEM. All experiments were performed at least twice. Statistical significance was determined using unpaired Student's t-test for (B) and (E).
Then, whether the Compound 1-induced splice-neoantigens are shared across cancer type was examined using murine lung carcinoma LLC, pancreatic ductal adenocarcinoma Pan02, leukemia WEHI3, colorectal adenocarcinoma CT26, lymphoma EG7, and skin melanoma B16 cells.
The effects of Compound 2 on RNA splicing events (splicing alterations) producing the aforementioned six splice-neoantigens in various murine cancer cell lines were investigated through RNA-Seq analysis in the same manner as in FIG. 5-2F, except that Compound 1 was replaced with Compound 2 (FIG. 8).

MC38 cells [4] = test: IFN-γ signaling and expression of MHC class I components and PD-L1 in MC38 cells; format: cell-based, murine
Source text: MHC class I expressed in cancer cells is critical for neoantigen presentation, which is indispensable for CD8^+ T cell-dependent immune surveillance and tumor killing. To investigate whether Compound 1 modulates the neoantigen presentation pathway, first, the effects of Compound 1 on IFN-γ signaling and the expression of MHC class I components, including […] (B2M) and H2-K^b in MC38 cells, were examined because CD8^+ T cell-secreted IFN-γ is a major inducer of MHC class I components. […] In contrast, any changes in the expression of PD-L1 were not detected in host dendritic cells or macrophages. […] However, these alterations were likely not the functional mechanisms through which Compound 1 exerts its antitumor effects (FIGS. 1-2O and 1-2P), as enhanced antitumor effects of Compound 1 were observed when co-administered with αPD-L1.

CC(C)Oc1ccc(-c2c[nH]cc2CN(C)CCN)cc1 [MS-023]
splicing events and splice-neoantigens in tumor cells (tumor cells): diversely alters splicing events and generates splice-neoantigens

KQQELFVLL (listed as Mus musculus) [Qpct1, splice-neoantigen peptide derived from altered splicing of Qpctl]
immunogenicity, IFN-γ ELISpot (CD8^+ T cells): immunogenic

NS(=O)(=O)c1ccc(S(=O)(=O)Nc2cccc3c(Cl)c[nH]c23)cc1 [Indisulam]
splicing events and splice-neoantigens in tumor cells (tumor cells): diversely alters splicing events and generates splice-neoantigens

RNRSHIFPL (listed as Mus musculus) [Nf1, splice-neoantigen peptide derived from altered splicing of Nf1]
immunogenicity, IFN-γ ELISpot (CD8^+ T cells): immunogenic | tumor-killing responses, individual epitopes (MC38 cells [1]): significantly triggered the tumor-killing responses

concanavalin A [concanavalin A (ConA), reference compound]
CD44^+ and CD69^+ marker expressions in CD8^+ and CD4^+ T cells [2]: promoted

SLLLLYLQL (listed as Mus musculus) [Rfx7, splice-neoantigen peptide derived from altered splicing of Rfx7]
immunogenicity, IFN-γ ELISpot (CD8^+ T cells): immunogenic | tumor-killing responses, individual epitopes (MC38 cells [1]): significantly triggered the tumor-killing responses

Tpr2: melanoma antigen peptide, tyrosinase-related protein 2 (TRP2) 180-188; control antigen (SVYDFFVWL; UniProt P29812 180-188, looked up, fragment) [reference compound]
tumor-killing activity of antigen-elicited effector cells (MC38 cells [1]; MC38 cells presenting six splice-neoepitopes, 24 hours co-culture, Annexin V^+/CFSE^+): did not exhibit any response

SQPLPNKIGF (listed as Mus musculus) [Nup153, splice-neoantigen peptide derived from altered splicing of Nup153]
immunogenicity, IFN-γ ELISpot (CD8^+ T cells): immunogenic | tumor-killing responses, individual epitopes (MC38 cells [1]): significantly triggered the tumor-killing responses

MALSNKAYV (listed as Mus musculus) [Kifc1, splice-neoantigen peptide derived from altered splicing of Kifc1]
immunogenicity, IFN-γ ELISpot (CD8^+ T cells): immunogenic | tumor-killing responses, individual epitopes (MC38 cells [1]): significantly triggered the tumor-killing responses

SILGFTMV (listed as Mus musculus) [Acbd4, splice-neoantigen peptide derived from altered splicing of Acbd4]
immunogenicity, IFN-γ ELISpot (CD8^+ T cells): immunogenic | tumor-killing responses, individual epitopes (MC38 cells [1]): significantly triggered the tumor-killing responses

N=C1NC(=O)/C(=C/c2ccc3c(c2)CCO3)S1 [Compound 2]
splicing alterations of the Kifc1 gene producing peptides containing MALSNKAYV ([3]; MC38 and B16): markedly observed | splicing alterations of the Rfx7 gene producing peptides containing SLLLLYLQL ([3]; all the cancer cell lines): markedly observed | production of splice-neoantigens ([3]; various murine cancer cell lines, RNA-Seq): increases the production of splice-neoantigens

B1: IFN-γ: interferon-γ, major inducer of MHC class I components (protein, UniProt P01579 24-161, looked up)
Interferon gamma: QDPYVKEAENLKKYFNAGHSDVADNGTLFLGILKNWKEESDRKIMQSQIVSFYFKLFKNFKDDQSIQKSVETIKEDMNVKFFNSNKKKRDDFEKLTNYSVTDLNVQRKAIHELIQVMAELSPAAKTGKRKRSQMLFRG
phosphorylation of STAT1 and STAT3 and expression of B2M protein (MC38 cells [4]): robustly induced
